In ChEMBL document CHEMBL1275476, “Emergence of macrolide resistance gene mph(B) in Streptococcus uberis and cooperative effects with rdmC-like gene” (2008):
Converted amounts (≈) assume the structure as drawn.

Experiments:
Format in all cases: functional
[1] = tested on: Streptococcus uberis; experiment: Antimicrobial activity against Streptococcus uberis UCN60 expressing mph(B) and rdmC-like genes by broth microdilution method
[2] = tested on: Streptococcus uberis; experiment: Antimicrobial activity against Streptococcus uberis UCN61 by broth microdilution method
[3] = tested on: Staphylococcus aureus; experiment: Antimicrobial activity against Staphylococcus aureus RN4220 harboring pAT392 containing mph(B) gene by broth microdilution method
[4] = tested on: Staphylococcus aureus; experiment: Antimicrobial activity against Staphylococcus aureus RN4220 harboring pAT392 containing rdmC-like gene by broth microdilution method
[5] = tested on: Enterococcus faecalis; experiment: Antimicrobial activity against Enterococcus faecalis JH2-2 harboring pAT392 containing rdmC-like gene by broth microdilution method
[6] = tested on: Escherichia coli; experiment: Antimicrobial activity against Escherichia coli AG100A harboring pAT392 containing rdmC-like gene by broth microdilution method
[7] = tested on: Enterococcus faecalis; experiment: Antimicrobial activity against Enterococcus faecalis JH2-2 harboring empty vector by broth microdilution method
[8] = tested on: Staphylococcus aureus; experiment: Antimicrobial activity against Staphylococcus aureus RN4220 harboring empty vector by broth microdilution method
[9] = tested on: Enterococcus faecalis; experiment: Antimicrobial activity against Enterococcus faecalis JH2-2 harboring pAT392 containing mph(B) gene by broth microdilution method
[10] = tested on: Escherichia coli; experiment: Antimicrobial activity against Escherichia coli AG100A harboring empty vector by broth microdilution method
[11] = tested on: Escherichia coli; experiment: Antimicrobial activity against Escherichia coli AG100A harboring pAT392 containing mph(B) gene by broth microdilution method
[12] = tested on: Staphylococcus aureus; experiment: Antimicrobial activity against Staphylococcus aureus RN4220 harboring pAT392 containing mph(B) and rdmC-like genes by broth microdilution method
[13] = tested on: Escherichia coli; experiment: Antimicrobial activity against Escherichia coli AG100A harboring pAT392 containing mph(B) and rdmC-like genes by broth microdilution method
[14] = tested on: Enterococcus faecalis; experiment: Antimicrobial activity against Enterococcus faecalis JH2-2 harboring pAT392 containing mph(B) and rdmC-like gene by broth microdilution method

Compound | MIC [1] [µg/mL] | MIC [2] [µg/mL] | MIC [3] [µg/mL] | MIC [4] [µg/mL] | MIC [5] [µg/mL] | MIC [6] [µg/mL] | MIC [7] [µg/mL] | MIC [8] [µg/mL] | MIC [9] [µg/mL] | MIC [10] [µg/mL] | MIC [11] [µg/mL] | MIC [12] [µg/mL] | MIC [13] [µg/mL] | MIC [14] [µg/mL]
CC[C@H]1OC(=O)[C@H](C)[C@@H](O[C@H]2C[C@@](C)(OC)[C@@H](O)[C@H](C)O2)[C@H](C)[C@@H](O[C@@H]2O[C@H](C)C[C@H](N(C)C)[C@H]2O)[C@](C)(O)C[C@@H](C)CN(C)[C@H](C)[C@@H](O)[C@]1(C)O [AZITHROMYCIN] | 0.12 (≈ 0.16 µM) | 0.12 (≈ 0.16 µM) | – | – | – | – | – | – | – | – | – | – | – | –
CCC[C@@H]1C[C@@H](C(=O)N[C@@H]([C@H]2O[C@H](SC)[C@H](O)[C@@H](O)[C@H]2O)[C@H](C)Cl)N(C)C1 [CLINDAMYCIN] | 0.03 (≈ 0.0706 µM) | 0.03 (≈ 0.0706 µM) | 0.06 (≈ 0.141 µM) | 0.06 (≈ 0.141 µM) | 2 (≈ 4.71 µM) | 2 (≈ 4.71 µM) | 2 (≈ 4.71 µM) | 0.06 (≈ 0.141 µM) | 2 (≈ 4.71 µM) | 2 (≈ 4.71 µM) | 2 (≈ 4.71 µM) | 0.06 (≈ 0.141 µM) | 2 (≈ 4.71 µM) | 2 (≈ 4.71 µM)
CC[C@H]1OC(=O)[C@H](C)[C@@H](O[C@H]2C[C@@](C)(OC)[C@@H](O)[C@H](C)O2)[C@H](C)[C@@H](O[C@@H]2O[C@H](C)C[C@H](N(C)C)[C@H]2O)[C@](C)(O)C[C@@H](C)C(=O)[C@H](C)[C@@H](O)[C@]1(C)O [ERYTHROMYCIN] | 0.06 (≈ 0.0818 µM) | 0.06 (≈ 0.0818 µM) | 0.25 (≈ 0.341 µM) | 0.25 (≈ 0.341 µM) | 0.25 (≈ 0.341 µM) | 2 (≈ 2.73 µM) | 0.25 (≈ 0.341 µM) | 0.25 (≈ 0.341 µM) | 0.25 (≈ 0.341 µM) | 2 (≈ 2.73 µM) | 64 (≈ 87.2 µM) | 0.25 (≈ 0.341 µM) | 64 (≈ 87.2 µM) | 0.25 (≈ 0.341 µM)
CO[C@@H]1[C@@H](O[C@@H]2O[C@H](C)[C@@H](O[C@H]3C[C@@](C)(O)[C@@H](OC(=O)CC(C)C)[C@H](C)O3)[C@H](N(C)C)[C@H]2O)[C@@H](CC=O)C[C@@H](C)[C@@H](O)/C=C/C=C/C[C@@H](C)OC(=O)C[C@H]1OC(C)=O [JOSAMYCIN] | 0.25 (≈ 0.302 µM) | 0.25 (≈ 0.302 µM) | 1 (≈ 1.21 µM) | 1 (≈ 1.21 µM) | 1 (≈ 1.21 µM) | 8 (≈ 9.66 µM) | 1 (≈ 1.21 µM) | 1 (≈ 1.21 µM) | 1 (≈ 1.21 µM) | 8 (≈ 9.66 µM) | 16 (≈ 19.3 µM) | 1 (≈ 1.21 µM) | 16 (≈ 19.3 µM) | 1 (≈ 1.21 µM)
CC[C@H]1OC(=O)C[C@@H](O)[C@H](C)[C@@H](O[C@@H]2O[C@H](C)[C@@H](O[C@H]3C[C@@](C)(O)[C@@H](O)[C@H](C)O3)[C@H](N(C)C)[C@H]2O)[C@@H](CC=O)C[C@@H](C)C(=O)/C=C/C(C)=C/[C@@H]1CO[C@@H]1O[C@H](C)[C@@H](O)[C@@H](OC)[C@H]1OC [TYLOSIN] | 0.5 (≈ 0.546 µM) | 0.5 (≈ 0.546 µM) | 1 (≈ 1.09 µM) | 1 (≈ 1.09 µM) | 1 (≈ 1.09 µM) | 16 (≈ 17.5 µM) | 1 (≈ 1.09 µM) | 1 (≈ 1.09 µM) | 1 (≈ 1.09 µM) | 16 (≈ 17.5 µM) | 128 (≈ 140 µM) | 16 (≈ 17.5 µM) | > 128 | 16 (≈ 17.5 µM)
SPIRAMYCIN | 8 | 0.5 | 8 | 4 | 2 | 200 | 0.5 | 4 | 8 | 8 | 400 | 32 | 1000 | 64
